According to ChEMBL document CHEMBL4376833, “Influence of Non-natural Cationic Amino Acids on the Biological Activity Profile of Innate Defense Regulator Peptides” (J Med Chem, 2019):
In brackets after ≈: the same amount, converted by molar mass. Activity calls are given as the source filed them. Unless noted, the calls are words filed in the database; no cut-off is given here. Non-standard residues stand in square brackets, D forms with d. Residues, ends and D or L forms follow the SMILES beside them. Orn = NCCC[C@H](N)C(=O)O; Dap = NC[C@H](N)C(=O)O

What was measured:
Staphylococcus aureus [1] = assay: Antibacterial activity against methicillin-resistant Staphylococcus aureus assessed as bacterial growth inhibition in TSB medium supplemented with 1% glucose measured after overnight incubation by CLSI protocol based broth dilution method; format: functional, organism-based
[2] = Binding affinity to DPC micelle assessed as increase in fluorescence emission intensity at maximum wavelength at 1 uM in TRIS buffer at pH 7.4 measured after 24 hrs by Trp emission fluorescence spectroscopy relative to TRIS buffer
[3] = Binding affinity to SDS micelle assessed as increase in fluorescence emission intensity at maximum wavelength at 1 uM in TRIS buffer at pH 7.4 measured after 24 hrs by Trp emission fluorescence spectroscopy relative to TRIS buffer
PBMC [4] = assay: Proinflammatory activity in human PBMC assessed as increase in LPS-stimulated IL1 production at 40 uM incubated for overnight in presence of Pseudomonas aeruginosa PAO1 LPS by ELISA relative to control; format: cell-based
Staphylococcus aureus [5] = assay: Antibacterial activity against methicillin-resistant Staphylococcus aureus assessed as alteration in bacterial growth in TSB medium supplemented with 1% glucose at concentration of MIC in MHB medium measured after overnight incubation by CLSI protocol based broth dilution method; format: functional, organism-based
[6] = Stability of compound assessed as bovine trypsin-mediated compound hydrolysis at 10 uM incubated for 30 mins by RP-HPLC analysis; format: ADME, Bos taurus; details: cattle, read-out: Drug degradation
Staphylococcus aureus [7] = assay: Antibacterial activity against methicillin-resistant Staphylococcus aureus assessed as alteration in bacterial growth in TSB medium supplemented with 1% glucose up to 64 uM measured after overnight incubation by CLSI protocol based broth dilution method; format: functional, organism-based
[8] = Binding affinity to DPC micelle assessed as blue shift with maximum fluorescence emission at 1 uM in TRIS buffer at pH 7.4 measured after 24 hrs by Trp emission fluorescence spectroscopy
[9] = Binding affinity to SDS micelle assessed as blue shift with maximum emission at wavelength between 339 to 344 nm at 1 uM in TRIS buffer at pH 7.4 measured after 24 hrs by Trp emission fluorescence spectroscopy
Staphylococcus aureus [10] = assay: Antibacterial activity against methicillin-resistant Staphylococcus aureus assessed as bacterial growth inhibition in MHB medium measured after overnight incubation by CLSI protocol based broth dilution method; format: functional
PBMC [11] = assay: Immunostimulatory activity in human PBMC assessed as induction of chemokine MCP1 production at 10 to 40 uM incubated for overnight by ELISA; format: functional, cell-based
PBMC [12] = assay: Cytotoxicity against human PBMC assessed as decrease in cell viability at 10 to 40 uM incubated for overnight by LDH assay; format: cell-based
Staphylococcus aureus [13] = assay: Antibiofilm activity against methicillin-resistant Staphylococcus aureus assessed as inhibition of biofilm formation incubated for overnight by crystal violet staining based microtiter plate assay; format: functional, organism-based
PBMC [14] = assay: Cytotoxicity against human PBMC assessed as decrease in cell viability at 40 uM incubated for overnight by LDH assay relative to control; format: cell-based
[15] = Binding affinity to DPC micelle assessed as blue shift with maximum emission at wavelength of 352 nm at 1 uM in TRIS buffer at pH 7.4 measured after 24 hrs by Trp emission fluorescence spectroscopy
PBMC [16] = assay: Proinflammatory activity in human PBMC assessed as increase in LPS-stimulated IL1 production at 40 uM incubated for overnight in presence nof Pseudomonas aeruginosa PAO1 LPS by ELISA; format: cell-based
PBMC [17] = assay: Antiinflammatory activity against LPS-stimulated human PBMC assessed as suppression of IL1 production at 10 to 40 uM incubated for overnight in presence of Pseudomonas aeruginosa PAO1 LPS by ELISA; format: functional, cell-based
[18] = Binding affinity to DPC micelle assessed as blue shift with maximum emission at wavelength of 340 nm at 1 uM in TRIS buffer at pH 7.4 measured after 24 hrs by Trp emission fluorescence spectroscopy
Staphylococcus aureus [19] = assay: Antibiofilm activity against methicillin-resistant Staphylococcus aureus assessed as inhibition of biofilm formation by measuring residual biofilm growth incubated for overnight at 10-fold dilution by crystal violet staining based microtiter plate assay relative to control; format: functional
Staphylococcus aureus [20] = assay: Antibacterial activity against methicillin-resistant Staphylococcus aureus assessed as alteration in bacterial growth incubated for overnight by microtiter plate based spectrophotometric analysis; format: functional, organism-based

| Compound | inhibition (Staphylococcus aureus [1]) | fold change (FC) [2] | Activity [3] | Activity (Staphylococcus aureus [5]) | metabolised at 0.5 h, 10 µM [6] | Activity (Staphylococcus aureus [7]) | Activity [8] | Activity [9] | MIC (Staphylococcus aureus [10]) | Activity (PBMC [11]) | Activity (PBMC [12]) | IC50 (Staphylococcus aureus [13]) | Activity (PBMC [16]) | Activity (PBMC [17]) | residual biofilm growth (% of control) (Staphylococcus aureus [19]) | Activity (Staphylococcus aureus [20]) | inhibition (Staphylococcus aureus [13]) | other results |
| --- | --- | --- | --- | --- | --- | --- | --- | --- | --- | --- | --- | --- | --- | --- | --- | --- | --- | --- |
| CC[C@H](C)[C@H](NC(=O)[C@H](CN)NC(=O)[C@@H](NC(=O)[C@H](C)NC(=O)[C@@H](NC(=O)[C@@H](NC(=O)[C@H](CC(C)C)NC(=O)[C@H](CN)NC(=O)[C@@H](N)C(C)C)[C@@H](C)CC)C(C)C)C(C)C)C(=O)N[C@@H](Cc1c[nH]c2ccccc12)C(=O)N[C@@H](CN)C(=O)N[C@@H](CN)C(N)=O (H-V[Dap]LIVAV[Dap]IW[Dap][Dap]-NH2) | inactive | 2 to 6 | inactive | Active | 30% | Active | Active | Active | 4 µM (≈ 5.02 µg/mL) | Active | Non-Toxic | 12.8 µM | – | – | – | – | – | fold change (FC) (PBMC [4]): 4 to 8 |
| H-VKLIVKVKIWKK-NH2 | inactive | 2 to 6 | – | Active | 18% | Active | Active | Active | 4 µM | Active | – | 9.9 µM | – | – | – | – | – | fold change (FC) [3]: 2.5; fold change (FC) (PBMC [4]): 4 to 8; Activity (PBMC [14]): 40% |
| CC[C@H](C)[C@H](NC(=O)[C@H](CCCN)NC(=O)[C@@H](NC(=O)[C@H](CCCN)NC(=O)[C@@H](NC(=O)[C@@H](NC(=O)[C@H](CC(C)C)NC(=O)[C@H](CCCN)NC(=O)[C@@H](N)C(C)C)[C@@H](C)CC)C(C)C)C(C)C)C(=O)N[C@@H](Cc1c[nH]c2ccccc12)C(=O)N[C@@H](CCCN)C(=O)N[C@@H](CCCN)C(N)=O (H-V[Orn]LIV[Orn]V[Orn]IW[Orn][Orn]-NH2) | inactive | 2 to 6 | inactive | Active | 60% | Active | Active | Active | 32 µM (≈ 45.1 µg/mL) | Active | Non-Toxic | 32 µM | Toxic | – | – | – | – | Activity [15]: Active |
| CC[C@H](C)[C@H](NC(=O)[C@H](CCCN)NC(=O)[C@@H](NC(=O)[C@H](C)NC(=O)[C@@H](NC(=O)[C@@H](NC(=O)[C@H](CC(C)C)NC(=O)[C@H](CCCN)NC(=O)[C@@H](N)C(C)C)[C@@H](C)CC)C(C)C)C(C)C)C(=O)N[C@@H](Cc1c[nH]c2ccccc12)C(=O)N[C@@H](CCCN)C(=O)N[C@@H](CCCN)C(N)=O (H-V[Orn]LIVAV[Orn]IW[Orn][Orn]-NH2) | inactive | 2 to 6 | inactive | Active | – | Active | Active | Active | 8 µM (≈ 10.9 µg/mL) | Active | Non-Toxic | 32 µM | Toxic | – | – | – | – | – |
| CC[C@H](C)[C@H](NC(=O)[C@H](CN)NC(=O)[C@@H](NC(=O)[C@H](CN)NC(=O)[C@@H](NC(=O)[C@@H](NC(=O)[C@H](CC(C)C)NC(=O)[C@H](CN)NC(=O)[C@@H](N)C(C)C)[C@@H](C)CC)C(C)C)C(C)C)C(=O)N[C@@H](Cc1c[nH]c2ccccc12)C(=O)N[C@@H](CN)C(=O)N[C@@H](CN)C(N)=O (H-V[Dap]LIV[Dap]V[Dap]IW[Dap][Dap]-NH2) | inactive | 2 to 6 | inactive | Active | 14% | Active | Active | Active | 8 µM (≈ 10.2 µg/mL) | inactive | Non-Toxic | 19.6 µM | – | inactive | – | – | – | – |
| H-VRLIVAVRIWRR-NH2 | inactive | – | – | Active | 60% | Active | Active | Active | 4 µM | inactive | – | 4 to 6 µM | – | – | 8.5% | Active | Dose-dependent effect | Activity [18]: Active |
| H-VKLIVAVKIWKK-NH2 | inactive | 2 to 6 | inactive | Active | 5% | Active | Active | Active | 4 µM | Active | Non-Toxic | 12.7 µM | Toxic | – | – | – | – | – |
| H-VRLIVRVRIWRR-NH2 | inactive | 2 to 6 | inactive | Active | 90% | Active | Active | Active | 2 µM | Active | Non-Toxic | 4 to 6 µM | – | Active | 9.2% | Active | Dose-dependent effect | – |
| H-VRLIVKVRIWRR-NH2 | inactive | 2 to 6 | – | Active | 60% | Active | Active | Active | 4 µM | inactive | Non-Toxic | 4 to 6 µM | – | Active | 6.1% | Active | Dose-dependent effect | fold change (FC) [3]: 2.5 |
